Tested on: P12-Ichikawa
Test: cell viability relative to DMSO control; higher = less cytotoxic
Conditions: 48 h
How it was run: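 Library compounds in DMSO were pin-dosed into 1536-well plates (5 μl) holding NOMO1 or SEM (500 cells/well) or P12-Ichikawa (1000 cells/well) leukemia cells, across an 11-point threefold series of 47 μM to 0.79 nM. Each cell line had been adapted for at least four passages in each medium. CellTiter-Glo One luminescence was read after 48 h at 37°C. Viability is the per-plate percentage relative to DMSO wells, with cell-free wells as background.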

[1] = HPLM + 10% dialyzed FBS, 0.000781 µM
[2] = HPLM + 10% dialyzed FBS, 0.00234 µM
[3] = HPLM + 10% dialyzed FBS, 0.00702 µM
[4] = HPLM + 10% dialyzed FBS, 0.0211 µM
[5] = HPLM + 10% dialyzed FBS, 0.0632 µM
[6] = HPLM + 10% dialyzed FBS, 0.19 µM
[7] = HPLM + 10% dialyzed FBS, 0.569 µM
[8] = HPLM + 10% dialyzed FBS, 1.71 µM
[9] = HPLM + 10% dialyzed FBS, 5.12 µM
[10] = HPLM + 10% dialyzed FBS, 15.4 µM
[11] = HPLM + 10% dialyzed FBS, 46.1 µM
[12] = RPMI 5 mM glucose + 10% FBS, 0.000781 µM
[13] = RPMI 5 mM glucose + 10% FBS, 0.00234 µM
[14] = RPMI 5 mM glucose + 10% FBS, 0.00702 µM
[15] = RPMI 5 mM glucose + 10% FBS, 0.0211 µM
[16] = RPMI 5 mM glucose + 10% FBS, 0.0632 µM
[17] = RPMI 5 mM glucose + 10% FBS, 0.19 µM
[18] = RPMI 5 mM glucose + 10% FBS, 0.569 µM
[19] = RPMI 5 mM glucose + 10% FBS, 1.71 µM
[20] = RPMI 5 mM glucose + 10% FBS, 5.12 µM
[21] = RPMI 5 mM glucose + 10% FBS, 15.4 µM
[22] = RPMI 5 mM glucose + 10% FBS, 46.1 µM
[23] = RPMI 5 mM glucose + 10% dialyzed FBS, 0.000781 µM
[24] = RPMI 5 mM glucose + 10% dialyzed FBS, 0.00234 µM
[25] = RPMI 5 mM glucose + 10% dialyzed FBS, 0.00702 µM
[26] = RPMI 5 mM glucose + 10% dialyzed FBS, 0.0211 µM
[27] = RPMI 5 mM glucose + 10% dialyzed FBS, 0.0632 µM
[28] = RPMI 5 mM glucose + 10% dialyzed FBS, 0.19 µM
[29] = RPMI 5 mM glucose + 10% dialyzed FBS, 0.569 µM
[30] = RPMI 5 mM glucose + 10% dialyzed FBS, 1.71 µM
[31] = RPMI 5 mM glucose + 10% dialyzed FBS, 5.12 µM
[32] = RPMI 5 mM glucose + 10% dialyzed FBS, 15.4 µM
[33] = RPMI 5 mM glucose + 10% dialyzed FBS, 46.1 µM

`Cc1nc(N)ncc1-c1nc(N2CCOCC2)c2sc(C(C)(C)O)cc2n1` gave a cell viability [1] of 125%, a cell viability [2] of 122% and a cell viability [3] of 119%. For the same compound, the cell viability [4] was 113%, the cell viability [5] was 83% and the cell viability [6] was 10.9%. The cell viability [7] was 7.79%, the cell viability [8] was 5.43% and the cell viability [9] was 4.61%. For the same compound, the cell viability [10] was 4.97%, the cell viability [11] was 4.1% and the cell viability [12] was 116%. It also gave a cell viability [13] of 122%, a cell viability [14] of 114% and a cell viability [15] of 120%. For the same compound, the cell viability [16] was 116%, the cell viability [17] was 121% and the cell viability [18] was 18.5%. For the same compound, the cell viability [19] was 7.92%, the cell viability [20] was 6.16% and the cell viability [21] was 5.72%. It also gave a cell viability [22] of 5.39%, a cell viability [23] of 124% and a cell viability [24] of 118%. The cell viability [25] was 125%, the cell viability [26] was 120% and the cell viability [27] was 122%. For the same compound, the cell viability [28] was 118%, the cell viability [29] was 13.2% and the cell viability [30] was 8.68%. For the same compound, the cell viability [31] was 7.11%, the cell viability [32] was 6.92% and the cell viability [33] was 5.85%.
Work on `Cc1cnc(Nc2ccc(N3CCN(C)CC3)cc2)nc1Nc1cccc([S+](=O)([O-])NC(C)(C)C)c1` yielded a cell viability [1] of 133%, a cell viability [2] of 104% and a cell viability [3] of 109%. For the same compound, the cell viability [4] was 121%, the cell viability [5] was 118% and the cell viability [6] was 109%. It also gave a cell viability [7] of 103%, a cell viability [8] of 90.8% and a cell viability [9] of 88.7%. The cell viability [10] was 10.6%, the cell viability [11] was 2.36% and the cell viability [12] was 112%. The cell viability [13] was 120%, the cell viability [14] was 119% and the cell viability [15] was 120%. For the same compound, the cell viability [16] was 124%, the cell viability [17] was 111% and the cell viability [18] was 117%. For the same compound, the cell viability [19] was 91.3%, the cell viability [20] was 80.2% and the cell viability [21] was 16.2%. It also gave a cell viability [22] of 7.55%, a cell viability [23] of 108% and a cell viability [24] of 115%. For the same compound, the cell viability [25] was 114%, the cell viability [26] was 113% and the cell viability [27] was 106%. It also gave a cell viability [28] of 107%, a cell viability [29] of 102% and a cell viability [30] of 92.7%. For the same compound, the cell viability [31] was 76.6%, the cell viability [32] was 48.4% and the cell viability [33] was 4.62%.
`Oc1c(Cl)cc(Cl)c2cccnc12` showed a cell viability [1] of 107%, a cell viability [2] of 112% and a cell viability [3] of 109%. It also gave a cell viability [4] of 100%, a cell viability [5] of 105% and a cell viability [6] of 107%. The cell viability [7] was 112%, the cell viability [8] was 103% and the cell viability [9] was 109%. For the same compound, the cell viability [10] was 97.4%, the cell viability [11] was 70.6% and the cell viability [12] was 100%. It also gave a cell viability [13] of 95.4%, a cell viability [14] of 109% and a cell viability [15] of 107%. For the same compound, the cell viability [16] was 108%, the cell viability [17] was 102% and the cell viability [18] was 101%. For the same compound, the cell viability [19] was 101%, the cell viability [20] was 96.2% and the cell viability [21] was 80.8%. It also gave a cell viability [22] of 30.5%, a cell viability [23] of 99.1% and a cell viability [24] of 99.4%. For the same compound, the cell viability [25] was 110%, the cell viability [26] was 95.2% and the cell viability [27] was 102%. For the same compound, the cell viability [28] was 101%, the cell viability [29] was 103% and the cell viability [30] was 99.1%. For the same compound, the cell viability [31] was 96.8%, the cell viability [32] was 85.5% and the cell viability [33] was 21.8%.
`COc1ccc([S+](=O)([O-])Nc2cccnc2Nc2ccc(O)cc2)cc1` gave a cell viability [1] of 124%, a cell viability [2] of 118% and a cell viability [3] of 124%. The cell viability [4] was 119%, the cell viability [5] was 122% and the cell viability [6] was 125%. For the same compound, the cell viability [7] was 129%, the cell viability [8] was 122% and the cell viability [9] was 17.2%. It also gave a cell viability [10] of 14.8%, a cell viability [11] of 10.8% and a cell viability [12] of 125%. The cell viability [13] was 121%, the cell viability [14] was 116% and the cell viability [15] was 126%. For the same compound, the cell viability [16] was 120%, the cell viability [17] was 119% and the cell viability [18] was 118%. For the same compound, the cell viability [19] was 122%, the cell viability [20] was 22.3% and the cell viability [21] was 17.7%. The cell viability [22] was 17.3%, the cell viability [23] was 117% and the cell viability [24] was 128%. The cell viability [25] was 118%, the cell viability [26] was 114% and the cell viability [27] was 121%. For the same compound, the cell viability [28] was 113%, the cell viability [29] was 108% and the cell viability [30] was 113%. It also gave a cell viability [31] of 39%, a cell viability [32] of 28% and a cell viability [33] of 24%.
Compound `CN1CCN(CCCN2c3ccccc3Sc3ccc(Cl)cc32)CC1.O=C(O)/C=C\C(=O)O.O=C(O)/C=C\C(=O)O` has a cell viability [1] of 108%, a cell viability [2] of 108% and a cell viability [3] of 105%. For the same compound, the cell viability [4] was 105%, the cell viability [5] was 106% and the cell viability [6] was 107%. For the same compound, the cell viability [7] was 114%, the cell viability [8] was 99% and the cell viability [9] was 108%. The cell viability [10] was 36.1%, the cell viability [11] was 34.8% and the cell viability [12] was 119%. The cell viability [13] was 110%, the cell viability [14] was 125% and the cell viability [15] was 126%. The cell viability [16] was 119%, the cell viability [17] was 137% and the cell viability [18] was 122%. For the same compound, the cell viability [19] was 112%, the cell viability [20] was 114% and the cell viability [21] was 29.5%. It also gave a cell viability [22] of 31.2%, a cell viability [23] of 106% and a cell viability [24] of 105%. It also gave a cell viability [25] of 106%, a cell viability [26] of 108% and a cell viability [27] of 116%. The cell viability [28] was 112%, the cell viability [29] was 111% and the cell viability [30] was 110%. The cell viability [31] was 104%, the cell viability [32] was 28.1% and the cell viability [33] was 32.1%.
In the case of `Nc1ccc([S+](=O)([O-])Nc2ncccn2)cc1`, the cell viability [1] is reported as 118%, the cell viability [2] is reported as 120% and the cell viability [3] is reported as 124%. For the same compound, the cell viability [4] was 95.8%, the cell viability [5] was 128% and the cell viability [6] was 131%. It also gave a cell viability [7] of 126%, a cell viability [8] of 125% and a cell viability [9] of 125%. The cell viability [10] was 119%, the cell viability [11] was 126% and the cell viability [12] was 115%. The cell viability [13] was 114%, the cell viability [14] was 122% and the cell viability [15] was 74.2%. For the same compound, the cell viability [16] was 133%, the cell viability [17] was 118% and the cell viability [18] was 127%. The cell viability [19] was 126%, the cell viability [20] was 132% and the cell viability [21] was 133%. The cell viability [22] was 106%.
Compound `Oc1ccc(-c2ccc(-c3cc(Nc4cccc(CNC5CC5)c4)[nH]n3)cc2)c(O)c1` has a cell viability [1] of 104%, a cell viability [2] of 103% and a cell viability [3] of 112%. For the same compound, the cell viability [4] was 104%, the cell viability [5] was 96.1% and the cell viability [6] was 112%. It also gave a cell viability [7] of 104%, a cell viability [8] of 92.3% and a cell viability [9] of 32.2%. The cell viability [10] was 38%, the cell viability [11] was 64.1% and the cell viability [12] was 99.4%. For the same compound, the cell viability [13] was 98.1%, the cell viability [14] was 115% and the cell viability [15] was 114%. The cell viability [16] was 98.5%, the cell viability [17] was 116% and the cell viability [18] was 108%. It also gave a cell viability [19] of 89%, a cell viability [20] of 23.2% and a cell viability [21] of 13.5%. The cell viability [22] was 23.4%, the cell viability [23] was 101% and the cell viability [24] was 114%. For the same compound, the cell viability [25] was 105%, the cell viability [26] was 125% and the cell viability [27] was 111%. For the same compound, the cell viability [28] was 112%, the cell viability [29] was 104% and the cell viability [30] was 101%. For the same compound, the cell viability [31] was 58.8%, the cell viability [32] was 32.9% and the cell viability [33] was 43.2%.
With `CC(C)CC(N(C)C)C1(c2ccc(Cl)cc2)CCC1` (stereo not drawn) the cell viability [1] was 114%, the cell viability [2] was 120% and the cell viability [3] was 105%. It also gave a cell viability [4] of 113%, a cell viability [5] of 114% and a cell viability [6] of 111%. It also gave a cell viability [7] of 105%, a cell viability [8] of 86.3% and a cell viability [9] of 57.7%. For the same compound, the cell viability [10] was 54.9%, the cell viability [11] was 34% and the cell viability [12] was 109%. It also gave a cell viability [13] of 115%, a cell viability [14] of 113% and a cell viability [15] of 109%. For the same compound, the cell viability [16] was 106%, the cell viability [17] was 112% and the cell viability [18] was 94%. The cell viability [19] was 82.2%, the cell viability [20] was 51.4% and the cell viability [21] was 48.7%. For the same compound, the cell viability [22] was 49.1%, the cell viability [23] was 106% and the cell viability [24] was 114%. The cell viability [25] was 106%, the cell viability [26] was 107% and the cell viability [27] was 111%. The cell viability [28] was 110%, the cell viability [29] was 86.7% and the cell viability [30] was 76.2%. It also gave a cell viability [31] of 49.9%, a cell viability [32] of 45.3% and a cell viability [33] of 41.6%.

Reference: the supplement of paper PMC11451515
